Patent US12116358B2, “Substituted indoles and methods of use thereof” (EPIZYME, INC., priority 2018, dated 2024)
Read-outs that look alike come from different tables or passages of the source.

Assays:
SETD2(1434-1711) = molecular target: T1, SETD2(1434-1711) (Homo sapiens, UniProt Q9BYW2); test: SETD2 (1434-1711) assay; type: biochemical; conditions: read-out: SETD2 (1434-1711)
T1 construct: SETD2 (1434-1711) Assay; catalogue N/A
T1 sequence (Q9BYW2 1434-1711): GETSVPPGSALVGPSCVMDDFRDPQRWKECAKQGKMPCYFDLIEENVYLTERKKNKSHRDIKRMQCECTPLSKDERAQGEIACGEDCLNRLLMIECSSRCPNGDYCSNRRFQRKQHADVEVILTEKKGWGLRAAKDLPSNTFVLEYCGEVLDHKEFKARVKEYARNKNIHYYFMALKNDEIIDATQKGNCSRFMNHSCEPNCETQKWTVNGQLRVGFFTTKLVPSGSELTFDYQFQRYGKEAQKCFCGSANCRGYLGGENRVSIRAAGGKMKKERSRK

H3K36me3 in A549 cells = test: In-Cell Western (ICW) assay of SETD2 inhibitors (A549 assay); type: cell-based, human; conditions: A549 cells, read-out: SETD2 A549
In short: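 H3K36me3 In-Cell Western: cells exposed to compound for 3 days at 4,000 cells/well, 37° C. DRAQ5 (1:1000) marked cell number, with 700/800-channel Licor read-out.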

| IC50 (SETD2(1434-1711)) [nM] | IC50 (H3K36me3 in A549 cells; Homo sapiens) [nM] | IC50 (H3K36me3 in A549 cells) [nM] | Structure (SMILES) |
| --- | --- | --- | --- |
| 800 | > 2000 |  | CC[C@H]1CN([C@@H]2CCC[C@@H](NC(=O)c3cc4c(F)ccc(C)c4[nH]3)C2)CCN1C(C)=O [compound 1086] |
| 10 | 500 |  | CN[C@H]1CCN([C@H]2CCC[C@@H](NC(=O)c3cc4c(F)ccc(C)c4[nH]3)C2)C1 [compound 1087] |
| 2200 | > 2000 |  | CN[C@H]1CCN([C@@H]2CCC[C@@H](NC(=O)c3cc4c(F)ccc(C)c4[nH]3)C2)C1 [compound 1088] |
| 500 | 1100 |  | Cc1ccc(F)c2cc(C(=O)N[C@@H]3CCC[C@H](N4CC[C@H](N(C)C)C4=O)C3)[nH]c12 [compound 1090] |
| 5800 | > 2000 |  | CC(=O)N1CCN([C@@H]2CCC[C@@H](NC(=O)c3cc4c(F)ccc(C)c4[nH]3)C2)[C@H](C)C1 [compound 1091] |
| 800 | 800 |  | CC(=O)N1CCN([C@H]2CCC[C@@H](NC(=O)c3cc4c(F)ccc(C)c4[nH]3)C2)[C@H](C)C1 [compound 1092] |
| 600 | > 2000 |  | CC[C@@H]1CN([C@@H]2CCC[C@@H](NC(=O)c3cc4c(F)ccc(C)c4[nH]3)C2)CCN1C(C)=O [compound 1095] |
| 2400 | > 2000 |  | CC(=O)N1[C@H](C)CN([C@@H]2CCC[C@@H](NC(=O)c3cc4c(F)ccc(C)c4[nH]3)C2)C[C@@H]1C [compound 1096] |
| 30 | 300 |  | CC(=O)N1CCN([C@H]2CCC[C@@H](NC(=O)c3cc4c(F)ccc(C)c4[nH]3)C2)C[C@H]1CO [compound 1098] |
| 10 | 100 |  | CC(=O)N1CCN([C@H]2CCC[C@@H](NC(=O)c3cc4c(F)ccc(C)c4[nH]3)C2)C[C@@H]1CO [compound 1099] |
| 900 | > 2000 |  | CC(=O)N1CCN([C@@H]2CCC[C@@H](NC(=O)c3cc4c(F)ccc(C)c4[nH]3)C2)CC12CC2 [compound 1100] |
| 3900 |  | > 2000 | Cc1ccc(F)c2cc(C(=O)NC3CCCC(N4CCN5C(=O)CN(C)C(=O)C5C4)C3)[nH]c12 (stereo not shown) [compound 1102] |
| 100 |  | 100 | Cc1ccc(F)c2cc(C(=O)NC3CCCC(N4CCN5C(=O)CN(C)C(=O)C5C4)C3)[nH]c12 (stereo not shown) [compound 1103] |
| 40 |  | 200 | Cc1ccc(F)c2cc(C(=O)NC3CCCC(N4CCN5C(=O)CN(C)C(=O)C5C4)C3)[nH]c12 (stereo not shown) [compound 1104] |
| 5300 | > 2000 |  | CC(=O)N1CCN([C@H]2C[C@H](NC(=O)c3cc4c(F)ccc(C)c4[nH]3)CN(C)C2)CC1 [compound 1107] |
| > 10000 | > 2000 |  | CC(=O)N1CCN([C@@H]2C[C@@H](NC(=O)c3cc4c(F)ccc(C)c4[nH]3)CN(C)C2)CC1 [compound 1108] |
| > 10000 |  | > 2000 | CC(=O)N1CCN(C2CC(NC(=O)c3cc4c(F)ccc(C)c4[nH]3)CN(C)C2)CC1 (stereo not shown) [compound 1109] |
| 20 |  | 70 | Cc1ccc(F)c2cc(C(=O)NC3CCCC(N4CCN5C(=O)OCC5C4)C3)[nH]c12 (stereo not shown) [compound 1111] |
| 20 | 20 |  | Cc1ccc(F)c2cc(C(=O)N[C@@H]3CCC[C@H](N4CCN(C(=O)C(C)C)C(C(F)(F)F)C4)C3)[nH]c12 (stereo partly shown) [compound 1112] |

| IC50 (SETD2(1434-1711)) [nM] | IC50 (H3K36me3 in A549 cells; Homo sapiens) [nM] | IC50 (H3K36me3 in A549 cells) [nM] | Structure (SMILES) |
| --- | --- | --- | --- |
| 10 | 10 |  | CCC(=O)N1CCN([C@H]2CCC[C@@H](NC(=O)c3cc4c(F)ccc(C)c4[nH]3)C2)CC1C(F)(F)F (stereo partly shown) [compound 1113] |
| 40 | 1600 |  | CN/C(=N\C#N)N1CCN([C@H]2CCC[C@@H](NC(=O)c3cc4c(F)ccc(C)c4[nH]3)C2)CC1 [compound 1114] |
| 30 | 200 |  | CN/C(=C\[N+](=O)[O-])N1CCN([C@H]2CCC[C@@H](NC(=O)c3cc4c(F)ccc(C)c4[nH]3)C2)CC1 [compound 1115] |
| 20 | 50 |  | C/C(=N\C#N)N1CCN([C@H]2CCC[C@@H](NC(=O)c3cc4c(F)ccc(C)c4[nH]3)C2)CC1 [compound 1116] |
| 30 |  | 10 | Cc1ccc(F)c2cc(C(=O)NC3CCCC(N4CCN(C(=O)CO)C(C(F)(F)F)C4)C3)[nH]c12 (stereo not shown) [compound 1117] |
| 5900 |  | > 2000 | CCN(C(=O)CO)C1CCN(C2CCCC(NC(=O)c3cc4c(F)ccc(C)c4[nH]3)C2)C1 (stereo not shown) [compound 1120] |
| 1900 |  | > 2000 | CCN(C1CCN(C2CCCC(NC(=O)c3cc4c(F)ccc(C)c4[nH]3)C2)C1)S(C)(=O)=O (stereo not shown) [compound 1122] |
| 500 |  | 1400 | CC(=O)N1C(C)CN(C2CCCC(NC(=O)c3cc4c(F)ccc(C)c4[nH]3)C2)CC1C (stereo not shown) [compound 1123] |
| 200 |  | 800 | CC(=O)N1CCC(C2CCCC(NC(=O)c3cc4c(F)ccc(C)c4[nH]3)C2)CC1 (stereo not shown) [compound 1124] |
| 20 | 80 |  | Cc1ccc(F)c2cc(C(=O)N[C@@H]3CCC[C@H](N4CCN5C(=O)N(C)C[C@H]5C4)C3)[nH]c12 [compound 1126] |
| 400 | 1300 |  | Cc1ccc(F)c2cc(C(=O)N[C@@H]3CCC[C@@H](N4CCN5C(=O)N(C)C[C@@H]5C4)C3)[nH]c12 [compound 1127] |
| 300 | 1600 |  | Cc1ccc(F)c2cc(C(=O)N[C@@H]3CCC[C@@H](N4CCN5C(=O)N(C)C[C@H]5C4)C3)[nH]c12 [compound 1128] |
| 10 |  | 100 | CCN(C(=O)CO)C1CCN(C2CCCC(NC(=O)c3cc4c(F)ccc(C)c4[nH]3)C2)C1 (stereo not shown) [compound 1129] |
| 4000 |  | > 2000 | CCN(C(=O)CO)C1CCN(C2CCCC(NC(=O)c3cc4c(F)ccc(C)c4[nH]3)C2)C1 (stereo not shown) [compound 1130] |
| 6 |  | 40 | CCN(C1CCN(C2CCCC(NC(=O)c3cc4c(F)ccc(C)c4[nH]3)C2)C1)S(C)(=O)=O (stereo not shown) [compound 1131] |
| 2300 |  | > 2000 | CCN(C1CCN(C2CCCC(NC(=O)c3cc4c(F)ccc(C)c4[nH]3)C2)C1)S(C)(=O)=O (stereo not shown) [compound 1132] |
| 1000 |  | > 2000 | Cc1ccc(F)c2cc(C(=O)NC3CCCC(N4CCN5C(=O)OCC5C4)C3)[nH]c12 (stereo not shown) [compound 1134] |
| 20 |  | 70 | Cc1ccc(F)c2cc(C(=O)NC3CCCC(N4CCN5C(=O)OCC5C4)C3)[nH]c12 (stereo not shown) [compound 1135] |
| 700 |  | > 2000 | Cc1ccc(F)c2cc(C(=O)NC3CCCC(N4CCN5C(=O)OCC5C4)C3)[nH]c12 (stereo not shown) [compound 1136] |

| IC50 (SETD2(1434-1711)) [nM] | IC50 (H3K36me3 in A549 cells; Homo sapiens) [nM] | IC50 (H3K36me3 in A549 cells) [nM] | Structure (SMILES) |
| --- | --- | --- | --- |
| 2000 |  | > 2000 | CC(=O)N1CCN(C2CCCC(NC(=O)c3cc4c(F)ccc(C)c4[nH]3)C2)C2(CC2)C1 (stereo not shown) [compound 1137] |
| 10 |  | 20 | Cc1ccc(F)c2cc(C(=O)NC3CCCC(N4CCN5C(=O)COCC5C4)C3)[nH]c12 (stereo not shown) [compound 1138] |
| 500 |  | 1700 | Cc1ccc(F)c2cc(C(=O)NC3CCCC(N4CCN5C(=O)COCC5C4)C3)[nH]c12 (stereo not shown) [compound 1139] |
| 50 |  | 100 | Cc1ccc(F)c2cc(C(=O)NC3CCCC(N4CCN5C(=O)COCC5C4)C3)[nH]c12 (stereo not shown) [compound 1140] |
| 400 |  | 1300 | Cc1ccc(F)c2cc(C(=O)NC3CCCC(N4CCN5C(=O)COCC5C4)C3)[nH]c12 (stereo not shown) [compound 1141] |
| 4800 |  | > 2000 | Cc1ccc(F)c2cc(C(=O)NC3CCCC(N4CCn5c(nn(C)c5=O)C4)C3)[nH]c12 (stereo not shown) [compound 1142] |
| 1900 |  | > 2000 | Cc1ccc(F)c2cc(C(=O)N[C@@H]3CCC[C@@H](N4CCn5c(cccc5=O)C4)C3)[nH]c12 [compound 1143] |
| 1800 |  | > 2000 | Cc1ccc(F)c2cc(C(=O)NC3CCCC(N4CCC(N(C)C(=O)C(C)(C)O)C4)C3)[nH]c12 (stereo not shown) [compound 1145] |
| 40 |  | 200 | Cc1ccc(F)c2cc(C(=O)NC3CCCC(N4CCC(N(C)C(=O)C(C)(C)O)C4)C3)[nH]c12 (stereo not shown) [compound 1146] |
| 1200 |  | > 2000 | Cc1ccc(F)c2cc(C(=O)NC3CCCC(N4CCC(N(C)C(=O)C(C)(C)O)C4)C3)[nH]c12 (stereo not shown) [compound 1147] |
| 900 |  | > 2000 | CC(=NC#N)N1CCN(C2CCCC(NC(=O)c3cc4c(F)ccc(C)c4[nH]3)C2)CC1 (stereo not shown) [compound 1148] |
| 4200 |  | > 2000 | Cc1ccc(F)c2cc(C(=O)NC3CCCC(N4CCC(N(CCO)S(C)(=O)=O)C4)C3)[nH]c12 (stereo not shown) [compound 1150] |
| 5800 |  | > 2000 | Cc1ccc(F)c2cc(C(=O)NC3CCCC(N4CCC(N(CCO)S(C)(=O)=O)C4)C3)[nH]c12 (stereo not shown) [compound 1151] |
| 1100 |  | > 2000 | CNC(=NC#N)N1CCN(C2CCCC(NC(=O)c3cc4c(F)ccc(C)c4[nH]3)C2)CC1 (stereo not shown) [compound 1152] |
| 6000 |  | > 25000 | Cc1cccc2cc(C(=O)NC(C)c3ccccc3Cl)[nH]c12 (stereo not shown) [compound 1154] |
| 2100 |  | 19700 | Cc1cccc2cc(C(=O)NC(C)c3ccccc3Cl)[nH]c12 (stereo not shown) [compound 1156] |
| 6 |  | 900 | Cc1ccc(F)c2cc(C(=O)Nc3cc(Cl)cc(N4CCC(CCCN5CCCC5)CC4)c3)[nH]c12 [compound 1158] |
| 4300 |  | > 2000 | COCC(=O)N(C)C1CCN(C2CCCC(NC(=O)c3cc4c(F)ccc(C)c4[nH]3)C2)C1 (stereo not shown) [compound 1160] |
